Measured values as given in patent US20230149326A1, “PHARMACEUTICAL COMPOSITION FOR PREVENTING OR TREATING MUSCULAR WEAKNESS-RELATED DISEASES COMPRISING ALVERINE, 4-HYDROXY ALVERINE, DERIVATIVE THEREOF, OR PHARMACEUTICALLY ACCEPTABLE SALT THEREOF” (AVENTI INC., priority 2020, published 2023).
Structures can show the parent of a compound that is named as a salt.

Assays:
[1] = tested on: C2C12 cells; experiment: Promotion of differentiation of myoblasts (MyHC fluorescent staining); type: cell-based, mouse
Procedure: C2C12 (American Type Culture Collection, CRL-1772™) cells are a myoblast cell line obtained from C3H mouse and is used in myoblast differentiation research. The C2C12 cells were cultured using growth media, and then cultured using differentiation media for differentiation induction. Here, DMEM supplemented with 10% fetal bovine serum was used as growth media (GM), and DMEM supplemented with 5% horse serum (HS) was used as differentiation media (DM). In order to confirm the effect of alverine citrate on promoting the differentiation of myoblasts, C2C12 cells were dispensed in the GM of Example 1.1 and cultured for 24 hours, and then the C2C12 cells were treated with DMSO, insulin, or alverine citrate, and induced for differentiation over 3 days. […] Here, the DMSO, insulin and alverine citrate used in the experiment were all purchased from Sigma-Aldrich. The group treated with insulin was used as the positive control group. In particular, C2C12 cells were dispensed in a 6-well plate treated with the GM of Example 1.1 at a concentration of 5×10^5 cells per plate and after 24 hours, were replaced with DMEM media supplemented with 5% HS and induced for differentiation. Thereafter, the cells were treated with DMSO, insulin (1.72 μM) or alverine citrate (0.01 μM, 0.1 μM, 1 μM or 10 μM). After 3 days, after removing the media, the cells were washed with phosphate buffer solution (1× PBS) and treated with paraformaldehyde (4%) and fixed at room temperature for 15 minutes. Then, after washing three times with phosphate buffer solution (1× PBS), PBS containing 0.3% triton X-100 was treated with permeabilization buffer and allowed to react at room temperature for 10 minutes. After washing three times with phosphate buffer solution (1× PBS), PBST (blocking buffer, PBS containing 0.5% Tween 20) containing 2% bovine serum albumin was administered and allowed to react for 30 minutes to suppress nonspecific binding of antibodies. After washing with phosphate buffer (1× PBS) three times, 100 μL of primary antibodies (SC-20641, Santa Cruz Biotechnology) to MYH3 diluted to 1:500 were added and allowed to react at room temperature for 1 hour. Thereafter, after washing with phosphate buffer (1× PBS) three times, 100 μL of secondary antibodies (Goat anti-Rabbit IgG-HRP) diluted to 1:5,000 were added and allowed to react at room temperature for 1 hour. After 1 hour, for nuclear staining, after washing with phosphate buffer (1× PBS) three times, the blocking buffer was treated with diluted DAPI dye and allowed to react at room temperature for 10 minutes. Thereafter, after washing with phosphate buffer (1× PBS) three times, the washed cover glass was measured for absorbance at a wavelength of 450 nm and a fluorescent image was taken using a fluorescence microscope. The anti-MyHC antibody stained area was analyzed using imageJ (Java-based image processing program). To confirm the effect of 4-hydroxy alverine on promoting myoblast differentiation, following the same method as Example 1, DMSO, insulin (1.72 μM), alverine citrate (0.01 μM, 0.1 μM, 1 μM or 10 μM), 4-hydroxy alverine (0.01 μM, 0.1 μM, 1 μM or 10 μM) were each administered, and differentiation to myotubes and changes in myotube thickness and diameter were observed.

[2] = tested on: sarcopenia-induced mice; experiment: Muscle weight measurement, sarcopenia-induced mouse; type: in vivo; settings: hindlimb-immobilized mice; oral 17, 50, 150 mg/kg/day
Procedure: In order to confirm a muscle strength enhancement effect of alverine citrate, sarcopenia-induced mice were administered with alverine citrate and tested for running ability. After the treadmill running test, muscle weight was measured. In particular, the hindlimb of 10 week-old C57BL/6 male mice was immobilized using a surgical stapler (Autosuture Royal 35W stapler). The staples were removed after 5 days and the mice were allowed to remobilize for 3 days. After that, running ability was measured. The mice were dosed orally with 200 μL of alverine citrate per mice at a dose of 17 mg/kg/day (AC-L), 50 mg/kg/day (AC-M) or 150 mg/kg/day (AC-H), and these mice were set as the experimental group. Untreated sarcopenia-induced mice were set as the control group (FIG. 8). The 10 week-old C57BL/6 male mice were purchased from Daehan BioLink. For muscle weight measurement, the GA and TA muscles in the hindlimb of the mice in each group were removed and weighed.

[3] = tested on: C57BL/6 male mice; experiment: Balance coordination test (rota-rod), normal mouse; type: in vivo
Procedure: In order to confirm the muscle strength enhancement effect of alverine citrate, after administering alverine citrate to a mouse, the mouse was tested for motor functions such as grip strength, running, balance coordination, and the like. After motor function tests, muscle weight was measured. In particular, each of 10 week-old C57BL/6 male mice was dosed orally with 200 μL of alverine citrate for 4 weeks, at a daily dose of 17 mg/kg/day (AC-L), 50 mg/kg/day (AC-M) or 150 mg/kg/day (AC-H). This group of mice was set as the experimental group (FIG. 3). The 10 week-old C57BL/6 male mice were purchased from Daehan BioLink. Balance coordination was measured using a rota-rod test. The rota-rod test device consists of 4 test zones, each having a shaft diameter of 3 cm and a lane width of 9 cm, and 5 rotatable circular dividers having a diameter of 60 cm and a round rod. The test was started from a rotating speed of 10 rpm, and the speed was accelerated up to maximum 40 rpm over 5 minutes, and the duration for which the mouse remains inside the rota-rod device, clinging to the round rod without falling, was recorded. The mouse was allowed to rest for 15 minutes after each test and was subjected to three tests in total. An average value of three measurements was calculated.

[4] = tested on: sarcopenia-induced mice; experiment: Running ability test, sarcopenia-induced mouse; type: in vivo; settings: hindlimb-immobilized mice; oral 17, 50, 150 mg/kg/day
Procedure: Running ability was measured using a treadmill designed specific for this experiment. First, aversive stimuli were provided by letting electric stimuli flow at the starting point. Before the measurement, the mice were acclimatized at 8 m/min for 10 minutes. The running time was recorded by allowing mice in each group to run in separate lanes until exhaustion. Exhaustion was defined such that when the mouse stays outside the lanes for 10 seconds or more without running, the mouse was determined to be exhausted and the time was recorded. It was not possible to repeat this experiment on the same mouse. The mouse was placed on the treadmill and the test was started at 8 rpm, and the speed was accelerated by 2 rpm every 10 minutes to a maximum speed of 20 rpm. The slope of the lane started from a zero-degree incline and then was elevated to a five-degree incline after 30 min from the start. In order to confirm a muscle strength enhancement effect of alverine citrate, sarcopenia-induced mice were administered with alverine citrate and tested for running ability. After the treadmill running test, muscle weight was measured. In particular, the hindlimb of 10 week-old C57BL/6 male mice was immobilized using a surgical stapler (Autosuture Royal 35W stapler). […] After that, running ability was measured. […] Running ability was measured by the same method as in Example 2.2.

CCN(CCCc1ccccc1)CCCc1ccccc1 [alverine citrate]
diameter of myotubes ([1]; as the treatment concentration increases (0.01, 0.1, 1, 10 μM), 3 days): the diameter of myotubes increased
differentiation of myoblasts to myotubes ([1]; compared with DMSO alone, 3 days, insulin 1.72 μM, alverine citrate 0.01-10 μM): more differentiated to myotubes
differentiation of myoblasts to myotubes ([1]; compared with DMSO or insulin (1.72 μM), 0.01-10 μM): more differentiated to myotubes
GA and TA muscle weights, dependence on dose [2]: also increased
duration clinging to the round rod, dependence on dose ([3]; as the administration dose increased (17, 50, 150 mg/kg/day)): also increased proportionally
duration clinging onto the round rod ([3]; oral, 4 weeks, 17, 50 or 150 mg/kg/day, compared with normal group): increased compared to the normal group mouse
running time, dependence on dose [4]: increased proportionally with the dose concentration
